“And” between values parts separate entries of the source, which are not always exact repeats. Equal entries are not always repeated.
Legend:
plasma protein [1] = assay: Plasma protein binding ex vivo (ultrafiltration); type: in vitro ADME; details: mouse plasma, 70 min after i.v. injection
Procedure: (§1) To measure plasma protein binding in vitro, a 1 mL portion of piglet plasma was incubated with 4.9 MBq [^18F]FACH (10 µL) on a shaker (400 rpm) for 20 min at 37 °C. The plasma protein binding was also measured ex vivo in 10 µL portions of mouse plasma from retro-orbital blood samples collected 70 min after intravenous (i.v.) injection of 3.7 MBq [^18F]FACH via a tail vein. The free and bound fractions of [^18F]FACH were separated by centrifugation at room temperature (2000 g for ten minutes, Centrifree® YM-30, Ultrafiltration Device; Merck KGaA, Darmstadt, Germany). Radioactivity was measured in aliquots of ultrafiltrate and in prefiltration plasma samples, using a Wizard 2470 γ-counter (PerkinElmer LAS, Rodgau, Germany), and the free fraction in the plasma (fp) calculated from the concentration ratio.

plasma protein [2] = assay: Plasma protein binding in vitro (ultrafiltration); type: in vitro ADME, piglet; details: pig plasma, 20 min at 37 °C
Procedure: as §1

MCTs [3] = assay: Dynamic PET/MRI in mice with pre-treatment; type: in vivo, mouse; details: mice, PET
Procedure: The biodistribution of [^18F]FACH in mice was assessed by small animal PET (Nanoscan, Mediso, Budapest, Hungary) with dynamic 60 min emission recordings, followed by T1 weighted GRE MR (TR = 15.0 ms, TE = 2.4 ms, FA = 25°) imaging for anatomical correlations and attenuation correction. The mice (n = 20) weighing 32.2 ± 2.9 g were anaesthetised with 2% isoflurane in 60% oxygen, and placed on a thermostatically heated animal bed. The animals then received i.v. injections of 0.9% saline (control), reference compound (10 mg/kg), or α-CCA-Na (25 mg/kg) ten min prior or 20 min after (displacement studies) [^18F]FACH administration (2.3–8.6 MBq, 0.5–11.2 nmol/kg). List mode PET data were binned as a series of attenuation-corrected sinogram frames (12 × 10 s, 6 × 30 s, 5 × 60 s and 10 × 300 s) and were reconstructed by Ordered Subset Expectation Maximization (OSEM3D) with four iterations, six subsets and a voxel size of 0.4 mm³ (Nucline v2.01, Mediso).
The analysis of reconstructed datasets was performed with PMOD software (v4.103, PMOD Technologies LLC, Zurich, Switzerland).
Data are shown in mean ± standard deviation (SD). Group differences were tested by Student’s t-test, with p < 0.05 designated as significant. Area Under the Curves (AUCs) and corresponding 95% confidence intervals (CI95%s) were calculated with GraphPad Prism (v.8.2) following the assumptions described by Gagnon et al..

MCTs [4] = assay: Compartmental kinetic modelling of PET data in piglets; type: in vivo, piglet; details: piglets; for K1 / VT / k2: 1-TCM, control; for BPND: (VT(control)/VT(pre-treated)) − 1; for K1 (representative 1-TCM curve fit) / k2 (representative 1-TCM curve fit): control study, Figure S12
Procedure: Table 4 includes the results of 1-tissue-compartment kinetic modelling (1-TCM) of [^18F]FACH in the kidney cortex and the liver of the control and pre-treated mouse groups (α-CCA-Na and reference compound). […] The BPND was estimated as the ratio of [VT(control)/VT(pre-treatment)] − 1.
Kinetic analysis of reconstructed datasets was performed with PMOD software. First, image derived arterial input functions (IDIFs) were obtained from the left ventricle in mice and from an artery close to the kidney in piglet studies. IDIFs were corrected for partial volume effects, plasma fraction from hematocrit values (individually determined for each piglet directly before PET imaging; for mice set to 0.51 according to CD-1 Mouse Hematology sheet from Charles River Laboratories, 2011) and radio-metabolites (measured for piglets, and set to zero for mice). Tri-exponential metabolite-corrected fitted input functions were used for one and two tissue compartment modelling (1-TCM/2-TCM) of time activity curves (TACs) in tissue volumes of interest (VOIs). For both species the specific blood volume was set to 0.15 mL g^−1 in the kidney cortex and 0.128 mL g^−1 in the liver, according to published values.

SMCT1 = tested on: SMCT1; parameters: method as in PMID 31017677; details: [14C]nicotinate uptake assay; read-out: IC50 towards SMCT1; cited from earlier work
[5] = parameters: method as in PMID 32357571; details: from dosimetry studies in piglets; cited from earlier work
[6] = Metabolism and renal excretion of [18F]FACH in piglets (radio-HPLC, graphical analysis)
Procedure: Radio-metabolites were analyzed by analytical and semi-preparative HPLC on a JASCO LC-2000 system (JASCO Labor- und Datentechnik, Gross-Umstadt, Germany), consisting of a PU-2080 Plus pump, AS-2055 Plus auto injector (100 μL sample loop) or a manual injection valve with a 5 mL sample loop, and a UV-2070 Plus detector coupled with a gamma radioactivity HPLC detector (Gabi Star, Raytest Isotopenmessgeräte GmbH, Straubenhardt, Germany). Data analysis was performed with the Galaxie chromatography software (Agilent Technologies, Santa Clara, CA, USA). […] For analytical and semi-preparative radio-HPLC analyses, Reprosil-Pur columns (C18-AQ 250 × 4.6 mm; 5 μm; and C18-AQ 150 × 4.6 mm; 10 μm; Dr. Maisch HPLC GmbH; Ammerbuch-Entringen, Germany) were used. Acetonitrile (ACN) mixed with a 20 mM aqueous solution of ammonium acetate (NH4OAc) was used as eluent.
In corresponding piglet studies (n = 5), plasma was separated from the arterial blood samples drawn during the PET recordings at certain time points.
In piglet studies, similar procedures were implemented for preparing samples from plasma collected at 15, 30, 45 and 60 min p.i., with the exception of collecting the urine sample only at 60 min p.i. Additionally, in order to measure the radio-metabolites in the piglet kidney, the tissue was resected at 60 min p.i. and after washing in PBS, samples of the kidney cortex and medulla were isolated and homogenized in demineralized water (2 mL/g tissue) using a borosilicate glass mortar with ten strokes of a PTFE plunger at 1000 rpm (Potter S, Homogenizer, B. Braun Biotech, Sartorius AG, Göttingen, Germany). Protein precipitation was performed by addition of ice-cold ACN/H2O at a ratio of 4:1 (v/v) of organic solvent to each tissue sample. The samples were vortexed for 3 min, placed on ice for 3 min, and the suspensions were centrifuged at 12,000 rpm at 4 °C for 5 min. For the second extraction, the precipitates were washed with 200 μL of the solvent mixture and subjected to the same procedure. The combined supernatants (total volume between 68 mL) were concentrated at 70 °C under argon flow to a final volume of approximately 2 mL and analyzed by semi-preparative RP radio-HPLC. […] The analyses were performed in gradient mode using 10% ACN/20 mM NH4OAc (aq.) as eluent A and 90% ACN/20 mM NH4OAc (aq.) as eluent B under the following conditions:
To determine the percentage of the radioactivity in the supernatants compared to the total radioactivity aliquots were taken at each step and, as well as the precipitates, quantified by gamma counting.
By interpolation of the measured radio-metabolite fractions from the piglet PET studies, the continuous TACs for [^18F]FACH and its radio-metabolites were calculated. Subsequently, the magnitudes of the whole body rate constant for [^18F]FACH metabolism (k0) and the elimination rate constant for the radio-metabolites (k−1) under control and pre-treated conditions were calculated as described previously [32]. Graphical analysis of the integrals of the plasma time-concentration series of PET tracers and their radio-metabolite(s) follow a linear relationship [32, 47], where the ordinate intercept is equal to the whole body fractional rate constant for the metabolism of the parent, designated k0 (min^−1). The linear regression slope corresponds to the fractional rate constant for the elimination of the radio-metabolite from circulation, designated k−1 (min^−1), which indicates the renal clearance of the radio-metabolite.

## CCCN(CCC[18F])c1ccc(/C=C(\C#N)C(=O)O)c(OC)c1 [[^18F]FACH, (E)-2-cyano-3-{4-[(3-[^18F]fluoropropyl)(propyl)amino]-2-methoxyphenyl}acrylic acid]
Plasma protein [1]
  free plasma fraction (fp): 0.07
Plasma protein [2]
  free plasma fraction (fp): 0.03
MCTs [3]; left heart ventricle VOI, all three treatment groups
  peak TAC SUV whole blood: 6.8 ± 1.3
MCTs [3]; vehicle pre-treatment
  AUC0–60 min gall bladder: 481 SUV min
  AUC0–60 min kidney cortex: 290 SUV min
  AUC0–60 min liver: 450 SUV min
  AUC0–60 min small intestine: 99 SUV min
  AUC0–60 min whole blood: 59 SUV min
MCTs [4]; kidney cortex
  K1: 0.69 ± 0.11 mL/g/min
  VT: 11.29 ± 1.47 mL/g
  k2: 0.06 ± 0.01 min⁻¹
  BPND: 5.2
  K1 (representative 1-TCM curve fit): 0.82 mL/g/min
  k2 (representative 1-TCM curve fit): 0.08 min⁻¹
MCTs [4]; liver
  K1: 0.64 ± 0.10 mL/g/min
  VT: 5.12 ± 1.27 mL/g
  k2: 0.13 ± 0.05 min⁻¹
  BPND: 0.18
  K1 (representative 1-TCM curve fit): 0.67 mL/g/min
  k2 (representative 1-TCM curve fit): 0.14 min⁻¹
SMCT1
  IC50: 78 µM
[5]
  predicted effective radiation dose for humans: about 2 mSv/100 MBq
[6]; piglets, control
  apparent rate constant (k0) for [18F]FACH metabolism: 0.87 ± 0.34 min⁻¹
[6]; piglets, control, 60 min
  parent radiotracer fraction in plasma: 8.8 ± 4.8%
[6]; piglets, control, five min
  parent radiotracer fraction in plasma: 42 ± 13%
[6]; piglets, urine 60 min p.i.
  intact radiotracer in urine: no intact radiotracer was detectable
[6]; two control piglets, 60 min p.i.
  parent fraction of [18F]FACH in kidney cortex: 50.5% and 48.0%

Reference: paper PMC7915902, “Preclinical Evaluation of [^18F]FACH in Healthy Mice and Piglets: An ^18F-Labeled Ligand for Imaging of Monocarboxylate Transporters with PET” (International Journal of Molecular Sciences, 2021)
